Experimental data taken from paper PMC11047535, “Pharmacokinetics and Nephrotoxicity of Polymyxin MRX-8 in Rats: A Novel Agent against Resistant Gram-Negative Bacteria” (Antibiotics, 2024).
Where two headings read alike, the source gives them in different places. Blank lines part the entries; values can stand above or below the compound they belong to. Positions of bridges follow the written chain, without caps; N, C: chain ends. Non-standard residues stand in square brackets, D forms with d. Residues, ends and D or L forms follow the SMILES beside them. *: point of attachment. Propanoyl(3-OH) = O=C(CCO)*; X1 = CC[C@H](C)CCCCC(=O)*; Dab = NCC[C@H](N)C(=O)O

What was measured:
Format in all cases: in vivo, Sprague-Dawley (SD) rats
[1] = Pharmacokinetics in rat plasma after single subcutaneous administration (LC-MS/MS, non-compartmental analysis); conditions: for CLz (total body clearance for extravascular administration) / V (volume of distribution) / AUC(0-t) / Cmax / Tmax / MRT / half-life: LC-MS/MS, NCA, n = 5; for AUC(0-t) / Cmax / Tmax / MRT / half-life: Sprague-Dawley, sc; for MRT: read-out: MRT (mean residence time); for half-life: read-out: T1/2 (terminal half-life) (converted)
Description: A Shimadzu LC-30A UHPLC system (Shimadzu, Kyoto, Japan) coupled with a Sciex QTRAP-5500 tandem mass spectrometer (Sciex, Framingham, MA, USA) was utilized. The chromatography was separated on a PHENOMENEX Kinetex®XB-C18 column (Phenomenex, Torrance, CA, USA) (100 mm × 2.1 mm, 2.6 μm) at 40 °C. The mobile phases were 2 mM of an ammonium acetate solution with 0.1% formic acid as the aqueous phase and acetonitrile solution with 0.1% formic acid as the organic phase. The gradient elution condition settings are detailed in Table S1. The mass spectrometer was operated in positive ESI mode with the following parameters: nebulizer gas (45 psi), heater gas (55 psi), curtain gas (40 psi), ion-spray voltage 4500 V, and ion source temperature of 450 °C.
An aliquot of 40 μL of rat plasma samples, 50 μL of polymyxin B1 (IS, 20 mg/L), and 50 μL of 6% formic acid in water were mixed. Then, 300 μL of acetonitrile was added to the mixture to precipitate proteins and centrifuged at 4 °C at 13,800 g for 10 min. A 100 μL aliquot of the supernatant was transferred and mixed with 150 μL of 6% formic acid water, and 5 μL was injected into the LC-MS/MS system.
A total of 20 wild-type male Sprague-Dawley (SD) rats weighing 280 g ± 20 g were randomly divided into 4 groups. Water and food were adequately provided. Four groups were given MRX-8 at doses of 2 mg/kg, 4 mg/kg, 6 mg/kg, and 8 mg/kg of body weight (dissolved in normal saline). 0.5 mL of blood samples were obtained from the jugular vein (without anesthesia) before and 0.25, 0.5, 1, 2, 4, 6, 8, and 24 h after dosing. Blood samples were collected into tubes with EDTA-K2 anticoagulant and centrifuged at 4 °C at 3500 g for 10 min. The plasma was collected and stored in a −70 °C refrigerator until analysis.
In the meantime, 10 additional SD rats were divided into two groups (5 rats each) and administered PMB at 4 mg/kg and 8 mg/kg, separately. Blood samples were obtained before and 0.25, 0.5, 1, 2, 4, 6, 8, 10, 12, and 24 h after dosing. The drug administration and sample collection methods were consistent with those used for MRX-8.
MRX-8 and MRX-8039 concentrations in plasma were measured, and mean concentration–time curves were plotted. […] After the administration, concentrations below the LLOQ were discarded.

rats [2] = test: Plasma NGAL kidney injury biomarker, ELISA; conditions: 24 h after single s.c. 8 mg/kg, saline group 53.03 ± 2.25
Description: (§1) Rats’ plasma and urine were collected continuously for 24 h after being administered subcutaneously. The plasma collected for the PK assay was split for creatinine and BUN concentrations, whereas a separate experiment was conducted to measure the biomarkers. The concentrations of creatinine and BUN in rat plasma were quantified utilizing the ADVIA Chemistry XPT analyzer (Siemens Healthcare, Munich, Germany). Rat plasma samples, along with quality control samples, were prepared and processed with dedicated reagent cartridges.
(§2) Enzyme-linked immunosorbent assay kits specific for KIM-1 (Cell Signaling Technology, Danvers, MA, USA), NGAL (Sangon Biotech, Shanghai, China), and TIMP-1 (Sangon Biotech, Shanghai, China) were utilized for analysis.

rats [3] = test: Creatinine in rat plasma (nephrotoxicity), ADVIA Chemistry XPT analyzer; conditions: for creatinine concentration: SD rats
Description: as §1

rats [4] = test: Urinary KIM-1 kidney injury biomarker, ELISA; conditions: 24 h after single s.c. 4 and 8 mg/kg, high variability within each group
Description: as §1, §2

rat kidney tissues = test: Kidney histology, PAS staining and semi-quantitative scores (SQS); conditions: PAS staining
Description: The kidney tissues were taken 24 h after the PK sample collection. The tissues were embedded in paraffin, sliced, dewaxed into water, and washed for 5 min. […] The pathology scores refer to the paper published by Jumana et al.. Briefly, the renal histological assessment included three grades of tubular damage. Scores were assigned to grades: grade 1 = 1, grade 2 = 4, and grade 3 = 10. Kidney involvement was assessed based on the percentage of affected slices: <1% = 0, 1 to <5% = 1, 5 to <10% = 2, 10 to <20% = 3, 20 to <30% = 4, 30 to <40% = 5, and ≥40% = 6. The overall score was calculated by multiplying the percentage score with the grade score. Finally, SQS for renal histological changes was assigned: SQS 0 = no significant change (overall score: <1); SQS +1 = mild damage (overall score: 1 to <15); SQS +2 = mild-to-moderate damage (overall score: 15 to <30); SQS +3 = moderate damage (overall score: 30 to <45); SQS +4 = moderate-to-severe damage (overall score: 45 to <60); and SQS +5 = severe damage (overall score: 60). The samples in this experiment were examined by pathologist Shaojun Liu, who had no knowledge of the grouping.
A one-way ANOVA was performed to evaluate (1) the PK parameters of T1/2, CLZ, V, and MRT at the dosages of 4, 6, and 8 mg/kg; (2) the concentrations of kidney injury biomarkers between the saline, MRX-8, and PMB groups. […]

rats [5] = test: Urinary NGAL kidney injury biomarker, ELISA; conditions: saline group 45.22 ± 1.46
Description: as §1, §2

rats [6] = test: Blood urea nitrogen (BUN) in rat plasma (nephrotoxicity), ADVIA Chemistry XPT analyzer; conditions: for BUN level: SD rats
Description: as §1

rats [7] = test: Urinary TIMP-1 kidney injury biomarker, ELISA; conditions: for urinary TIMP-1 level: saline group 2.89 ± 1.80
Description: as §1, §2

[8] = SD rats, single s.c. dose 4 mg/kg, plasma
[9] = SD rats, single s.c. dose 8 mg/kg, plasma
[10] = rat, in vivo, SD rats, single s.c. dose 4 mg/kg, plasma
[11] = rat, in vivo, SD rats, single s.c. dose 8 mg/kg, plasma

Tmax delay of MRX-8039 relative to MRX-8 ([1]; rat, in vivo): approximately 1.5 h
SMILES: CC(C)C[C@@H]1NC(=O)[C@@H](Cc2ccccc2)NC(=O)[C@H](CCN)NC(=O)[C@@H](NC(=O)[C@H](CCN)NC(=O)[C@@H](NC(=O)[C@H](CCN)NC(=O)CCO)[C@@H](C)O)CCNC(=O)[C@H]([C@@H](C)O)NC(=O)[C@H](CCN)NC(=O)[C@H](CCN)NC1=O [MRX-8039] ({Propanoyl(3-OH)}-[Dab]T[Dab][Dab][Dab][dF]L[Dab][Dab]T; lactam 4-C)

SMILES: CC[C@H](C)CCCCC(=O)N[C@@H](CCN)C(=O)N[C@H](C(=O)N[C@@H](CCN)C(=O)N[C@H]1CCNC(=O)[C@H]([C@@H](C)O)NC(=O)[C@H](CCN)NC(=O)[C@H](CCN)NC(=O)[C@H](CC(C)C)NC(=O)[C@@H](Cc2ccccc2)NC(=O)[C@H](CCN)NC1=O)[C@@H](C)O [PMB, polymyxin B] (X1-[Dab]T[Dab][Dab][Dab][dF]L[Dab][Dab]T; lactam 4-C)
NGAL level in plasma (rats [2]): 61.14 ± 2.52 ng/mL | creatinine concentration (rats [3]; 8 h after single s.c. 4 mg/kg, saline group 21.25 ± 2.22): 103.86 ± 12.66 µmol/L | creatinine concentration (rats [3]; 8 h after single s.c. 8 mg/kg, saline group 21.25 ± 2.22): 85.61 ± 17.27 µmol/L | change of blood creatinine levels compared to the saline group (rats [3]; 8 h and 24 h after single s.c. dose (MRX-8 2 to 8 mg/kg; PMB 4 and 8 mg/kg), one-way ANOVA): significant increase | creatinine concentration (rats [3]; 24 h after single s.c. 4 mg/kg, saline group 22.5 ± 2.52): 169.79 ± 61.93 µmol/L | creatinine concentration (rats [3]; 24 h after single s.c. 8 mg/kg, saline group 22.5 ± 2.52): 110.81 ± 67.3 µmol/L | change of urine KIM-1 levels compared to the saline group (rats [4]): No statistically significant differences | histological findings in kidney tissues (rat kidney tissues; 24 h post single s.c. dose of 8 mg/kg): more severe renal damage, including tubular dilation, cellular necrosis, and tubular formation | histological findings in kidney tissues (rat kidney tissues; 24 h post single s.c. dose, compared to the saline group): mild focal tubular cell shedding and cytoplasmic attenuation | urinary NGAL level (rats [5]; 24 h after single s.c. 4 mg/kg): 50.34 ± 2.70 ng/mL | urinary NGAL level (rats [5]; 24 h after single s.c. 8 mg/kg): 56.95 ± 6.01 ng/mL | BUN level (rats [6]; 8 h after single s.c. 4 mg/kg, saline group 5.52 ± 0.56): 19.58 ± 3.05 mmol/L | BUN level (rats [6]; 8 h after single s.c. 8 mg/kg): 15.36 ± 3.05 mmol/L | change of BUN levels compared to the saline group (rats [6]; 8 h and 24 h after single s.c. dose (PMB 4 and 8 mg/kg; MRX-8, except significant increase at 4 mg/kg at 8 h)): significant increase | BUN level (rats [6]; 24 h after single s.c. 4 mg/kg): 44.3 ± 1.12 mmol/L | BUN level (rats [6]; 24 h after single s.c. 8 mg/kg): 54.85 ± 11.81 mmol/L | urinary TIMP-1 level (rats [7]; 24 h after single s.c. 4 mg/kg): 20.65 ± 12.44 ng/mL | urinary TIMP-1 level (rats [7]; 24 h after single s.c. 8 mg/kg): 20.54 ± 7.82 ng/mL | change of urinary TIMP-1 compared to the saline group (rats [7]; 24 h after single s.c. 4 and 8 mg/kg): increased significantly | Tmax (absorption, as read from Figure 3) ([1]; SD rats, s.c. administration, plasma, range over dose groups): 4~6 h | CLz (total body clearance for extravascular administration) [1, 8]: 0.24 ± 0.06 L/h/kg | V (volume of distribution) [1, 8]: 1.52 ± 0.27 L/kg | CLz (total body clearance for extravascular administration) [1, 9]: 0.25 ± 0.02 L/h/kg | V (volume of distribution) [1, 9]: 1.49 ± 0.31 L/kg | AUC(0-t) ([1]; rat, in vivo, 4 mg/kg, SD rats, single s.c. dose 4 mg/kg, plasma, read-out: AUC0–8 h): 9550 ± 2540 ng·h/mL | AUC(0-t) ([1]; rat, in vivo, 4 mg/kg, SD rats, single s.c. dose 4 mg/kg, plasma, read-out: AUC0–24 h): 17100 ± 3900 ng·h/mL | AUC(0-t) ([1]; rat, in vivo, 8 mg/kg, SD rats, single s.c. dose 8 mg/kg, plasma, read-out: AUC0–8 h): 17900 ± 3050 ng·h/mL | AUC(0-t) ([1]; rat, in vivo, 8 mg/kg, SD rats, single s.c. dose 8 mg/kg, plasma, read-out: AUC0–24 h): 31200 ± 3140 ng·h/mL | Cmax [1, 10]: 1770 ± 510 ng/mL | Tmax [1, 10]: 4.8 ± 1.1 h | MRT [1, 10]: 8.66 ± 0.7 h | half-life [1, 10]: 273 ± 33.6 min | Cmax [1, 11]: 3150 ± 440 ng/mL | Tmax [1, 11]: 6 h | MRT [1, 11]: 8.23 ± 0.71 h | half-life [1, 11]: 245 ± 26.4 min
